# Target: T1, α1β3 GABAA receptors (Homo sapiens, UniProt P14867+P28472)
# T1 construct: expressed in transfected cells; host or cells: Xenopus laevis oocytes, cRNA injected 5:1 (α1:β3)
# T1 sequence (P14867 28-456): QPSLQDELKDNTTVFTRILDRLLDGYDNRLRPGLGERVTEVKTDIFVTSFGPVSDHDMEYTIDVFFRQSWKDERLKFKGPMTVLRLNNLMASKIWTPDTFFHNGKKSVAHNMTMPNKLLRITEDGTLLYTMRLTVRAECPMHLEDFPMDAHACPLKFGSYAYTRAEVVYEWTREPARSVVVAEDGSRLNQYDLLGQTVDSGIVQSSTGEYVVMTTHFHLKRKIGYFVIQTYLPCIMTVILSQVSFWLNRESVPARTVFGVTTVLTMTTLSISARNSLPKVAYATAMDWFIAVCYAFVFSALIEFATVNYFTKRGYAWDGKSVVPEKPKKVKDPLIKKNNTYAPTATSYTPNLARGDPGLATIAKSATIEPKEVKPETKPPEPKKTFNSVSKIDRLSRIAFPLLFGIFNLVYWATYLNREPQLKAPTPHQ
# T1 sequence (P28472 26-473): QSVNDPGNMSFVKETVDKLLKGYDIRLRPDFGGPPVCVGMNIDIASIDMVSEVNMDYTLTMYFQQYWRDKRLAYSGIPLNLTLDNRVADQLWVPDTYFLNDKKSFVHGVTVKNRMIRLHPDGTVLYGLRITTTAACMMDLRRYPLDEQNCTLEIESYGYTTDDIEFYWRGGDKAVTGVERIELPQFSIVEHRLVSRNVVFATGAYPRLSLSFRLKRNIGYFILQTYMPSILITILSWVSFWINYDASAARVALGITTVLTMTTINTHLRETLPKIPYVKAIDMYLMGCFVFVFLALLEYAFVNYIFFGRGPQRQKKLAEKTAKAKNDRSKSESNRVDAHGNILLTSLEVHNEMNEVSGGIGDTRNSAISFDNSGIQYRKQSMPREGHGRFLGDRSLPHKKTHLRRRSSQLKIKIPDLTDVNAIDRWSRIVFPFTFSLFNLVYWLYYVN
# Experiment: Two-electrode voltage clamp of GABA-elicited currents in Xenopus oocytes
# Assay type: cell-based
# Conditions: low GABA; wild-type α1β3
# Method: Receptor expression and electrophysiological recordings were conducted as described in detail previously ([Sugasawa et al., 2020]). In brief, α1β3 GABAA receptors were expressed in oocytes from the African clawed frog (X. laevis). The wild-type α1 and β3 subunits were of human origin (Genbank accession numbers NM_000806.5 and NM_000814.5, respectively). The α1 clone containing the Q-to-L mutation to the classic neurosteroid binding site ([Hosie et al., 2006]) was of rat origin. (The glutamine residue in ELIC-α1GABAAR is Q242, whereas the corresponding residue in rat α1 is Q241. For simplicity, the residue is referred to as Q242 for both rat and ELIC-α1GABAAR.) The oocytes were purchased as quarter ovaries from Xenopus1 (Dexter, MI, USA). Following digestion in 2% w/v (mg·ml^−1) collagenase A, the oocytes were injected with a total of 12 ng cRNA per oocyte in a 5:1 ratio (α1:β3) and incubated at 15°C for 2–3 days prior to electrophysiological recordings in ND96 (96-mM NaCl, 2-mM KCl, 1.8-mM CaCl2, 1-mM MgCl2, 5-mM HEPES; pH 7.4) supplemented with 100 U·ml^−1 penicillin and 100 μg·ml^−1 streptomycin.
# Electrophysiological recordings were conducted at ≈22°C using standard two-electrode voltage clamp. The voltage and current electrodes (G120F-4, OD = 1.20 mm, ID = 0.69 mm; Warner Instruments, Hamden, CT, USA) were filled with 3-M KCl and had resistances of 0.3–1 MΩ. The oocytes were clamped at −60 mV. The chamber (RC-1Z; Warner Instruments) was perfused with ND96 at 5–8 ml·min^−1. Solutions were gravity-applied. The current responses were amplified with an Axoclamp 900A (Molecular Devices, San Jose, CA, USA) or OC-725C amplifier (Warner Instruments), digitized with a Digidata 1200 series digitizer (Molecular Devices) and stored on PC hard drive using pClamp (Molecular Devices; RRID:SCR_011323). Current amplitudes were determined using Clampfit (Molecular Devices).
# A standard experiment consisted of a several-minute long applications of GABA followed immediately by a co-application of GABA + modulator and a wash in GABA. For normalization purposes, each cell was exposed to the combination of saturating (1-mM) GABA + 50-μM propofol, assumed to fully activate all receptors in the cell ([Eaton et al., 2016]).
smiles,measurement,value
"CC(=O)[C@H]1CC[C@H]2[C@@H]3CC[C@H]4C[C@@H](O)CC[C@]4(C)[C@H]3CC[C@]12C [Epi-AlloP, epi-allopregnanolone]",potentiation of GABA-elicited currents,do not

# — publication PMC11585924, “Direct measurements of neurosteroid binding to specific sites on GABAA receptors” (British journal of pharmacology, 2024)
